From patent US20260284046A1, “PYRIDAZINE COMPOUNDS FOR TREATMENT OF FIBROTIC DISEASES” (GEORG-AUGUST-UNIVERSITAET GOETTINGEN STIFTUNG OEFFENTLICHEN …, priority 2023, published 2026)

How the values were obtained:
[1] = test system: human dermal fibroblasts HRO159N; experiment: ELISA of secreted pro-collagen I alpha 1, human dermal fibroblasts HRO159N; format: cell-based; details: 48 h, 250 μg
Method: (§1) Compounds reconstitution and stock solution: Prior to treatment, DMSO was diluted in PMS until 0.1% DMSO was made. Each compound was solved in 0.1% DMSO (3: 2.5 mg/mL, 1: 2.5 mg/mL, 10: 1 mg/mL, 5: 1 mg/mL, 7: 0.6 mg/mL, 16: 1 mg/mL 17: 1 mg/mL, 44: 0.6 mg/mL, 36: 1 mg/mL.
(§2) Next the different stock solution with 150 μg and 250 μg of each compound per 1 ml culture solution was made by adding the 0.1% DMSO compound solution in the right amount to culture solution (DMEM with 10% FCS and 1% penicillin-streptomycin).
Three different cell lines were used for the experiments. GM637 is an immortalized cell line originated from human skin fibroblasts, bought in 2001, UKE1 and […] are cell lines originated from human dermal fibroblasts (dog ear) nurtured from patients, between 60 and 80 years old being completely anonymized at the clinic for dermatology, Rostock.
(§3) The cells lines were thawed and were cultured in Dulbecco's modified Eagle's medium (DMEM, Gibcon, USA) supplemented with 10% fetal bovine serum (FBS, Gibco, Germany) and 1% penicillin-streptomycin (PS, Gibco, USA) at 37° C. in a humidified atmosphere with 5% CO2 until a sufficient number of cells were culture in T75 culture bottles. After reaching a confluence of 80% to 90%, the cells were separated using trypsin and counted. Next 100.000 cells were planted in each well of a 6 well plate in replicates, washed and the DMEM solution with 150 μg and 250 μg/ml substance/DMEM and DMEM with no substance as control was added.
(§4) After 48 h and after 72 h 100 μl supernatant of each well was taken, labelled and frozen at −20° degree Celsius. Prior to perform ELISA the medium was depending on the cell line diluted 1:50 or 1:100 with PBS, otherwise the concentration of collagen fibers was too high to be measured.
The media containing the secretion of the different human dermal fibroblasts GM637, UKE1, and HRO159N were collected after 48 h and 72 h treatment. Secretion of pro-collagen 1 was assessed with human pro-collagen I alpha 1 DuoSet ELISA (R&D systems, USA) To prepare the Elisa plate, Human pro-Collagen I α capture antibody was diluted in ELISA plate-coating buffer at 4 μg/mL working concentration. 100 μl of diluted Capture antibody was added to 96-well microplates and incubated over night at room temperature. After three times washing with Wash Buffer, microplates were blocked by adding 300 μl of Reagent Diluent for 1 hour at room temperature. To proceed the ELISA Human pro-collagen I α1 Standards were diluted in Reagent Diluent (range between […]) and 100 μl of standards or conditioned mediums were added to designated wells. Microplates were incubated at room temperature for 2 hours. Human Pro-collagen I α1 Detection Antibody was prepared in Reagent Diluent at […] working concentration and 100 μl of diluted Detection Antibody was applied for 2 hours at room temperature after extensive washing. Then, working solution of Streptavidin-HRP with Reagent Diluent was prepared by diluting 1:40 and added into each well. After 20 minutes at room temperature incubation, microplates were washed and applied with 100 μl of Substrate Solution for 20 minutes followed by Stop Solution after washing. Finally, signals were measured at 450 nm absorbance by PHomo Microplate Reader (Autobio, China) The amount of pro-collagen 1 was quantified by extrapolating the signal into a linear range of a pro-collagen 1 standard curve. Screening compounds were typically tested at concentration of 150 and 250 μg/mL. The dose response data for each compound and the different cell lines were obtained by nonlinear regression analysis using Prism 9 software (GraphPad, La Jolla, USA).

[2] = test system: human lung fibroblast MRCVI; experiment: ELISA of secreted pro-collagen I alpha 1, human lung fibroblast MRCVI; format: cell-based; details: 48 h, 250 μg
Method: as §1, §2
As cell line MRCV1 was used, which is an immortalized cell line originated from human lung fibroblast, bought in 2001.
as §3, with “cell line was” for “cells lines were”, “and” for “and were”
as §4
The medium containing the secretion of the human lung fibroblast MRCVI was collected after 48 h and 72 h treatment. Secretion of pro-collagen 1 was assessed with human pro-collagen I alpha 1 DuoSet ELISA (R&D systems, USA) To prepare the Elisa plate, Human pro-Collagen I α capture antibody was diluted in ELISA plate-coating buffer at 4 μg/mL working concentration. 100 μl of diluted Capture antibody was added to 96-well microplates and incubated over night at room temperature. After three times washing with Wash Buffer, microplates were blocked by adding 300 μl of Reagent Diluent for 1 hour at room temperature. To proceed the ELISA Human pro-collagen I α1 Standards were diluted in Reagent Diluent (range between […]) and 100 μl of standards or conditioned mediums were added to designated wells. Microplates were incubated at room temperature for 2 hours. Human Pro-collagen I α1 Detection Antibody was prepared in Reagent Diluent at […] working concentration and 100 μl of diluted Detection Antibody was applied for 2 hours at room temperature after extensive washing. Then, working solution of Streptavidin-HRP with Reagent Diluent was prepared by diluting 1:40 and added into each well. After 20 minutes at room temperature incubation, microplates were washed and applied with 100 μl of Substrate Solution for 20 minutes followed by Stop Solution after washing. Finally, signals were measured at 450 nm absorbance by PHomo Microplate Reader (Autobio, China) The amount of pro-collagen 1 was quantified by extrapolating the signal into a linear range of a pro-collagen 1 standard curve. Screening compounds were typically tested at concentration of 150 and 250 μg/mL. The dose response data for each compound and the different cell lines were obtained by nonlinear regression analysis using Prism 9 software (GraphPad, La Jolla, USA).

In the case of c1ccc2c(c1)cnn1nnnc21 [Compound 1, Tetrazolo[5,1-a]phthalazine], the “collagen reduction percentage in comparison to the standard (100%)” value (“collagen reduction percentage … (100%)” for short) [1] is reported as 57% and the “collagen reduction percentage … (100%)” value [2] is reported as 78%.

In the case of COc1nn2c(C)nnc2c2ccccc12 [Compound 3, 6-Methoxy-3-methyl-1,2,4-triazolo[3,4-a]phthalazine], the “collagen reduction percentage … (100%)” value [1] is reported as 82% and the “collagen reduction percentage … (100%)” value [2] is reported as 11%.

In the case of [2H]C([2H])([2H])c1nnc2c3ccccc3cnn12 [Compound 7, 3-D3-Methyl-1,2,4-triazolo[3,4-a]phthalazine], the “collagen reduction percentage … (100%)” value [1] is reported as 43% and the “collagen reduction percentage … (100%)” value [2] is reported as 9%.

With c1ccc2c(c1)cnn1cnnc21 [Compound 10, 1,2,4-Triazolo[3,4-a]phthalazine] the “collagen reduction percentage … (100%)” value [2] was 52%.

With Cc1nnc2c3cscc3cnn12 [Compound 16, 3-Methylthieno[3,4-d][1,2,4]triazolo[4,3-b]pyridazine] the “collagen reduction percentage … (100%)” value [1] was 79% and the “collagen reduction percentage … (100%)” value [2] was 43%.

In the case of c1nn2nnnc2c2cscc12 [Compound 17, Tetrazolo[1,5-b]thieno[3,4-d]pyridazine], the “collagen reduction percentage … (100%)” value [1] is reported as 34% and the “collagen reduction percentage … (100%)” value [2] is reported as 16%.

In the case of Cc1nnc2c3ccc(C(F)(F)F)cc3cnn12 [Compound 36, 3-Methyl-8-(trifluoromethyl)-[1,2,4]triazolo[3,4-a]phthalazine], the “collagen reduction percentage … (100%)” value [2] is reported as 68%.

With CC(C)Oc1nn2nnnc2c2c(Cl)cccc12 [Compound 44, 10-chloro-6-isopropoxytetrazolo[5,1-a]phthalazine] the “collagen reduction percentage … (100%)” value [1] was 72%.
